Assay results reported in patent US20160115192A1, “ANTIOXIDANT, ANTI-INFLAMMATORY AND ANTICANCER DERIVATIVES OF TRIPTOLIDE AND NANOSPHERES THEREOF” (CEDARS-SINAI MEDICAL CENTER, priority 2013, published 2016).

What was measured:
[1] = 30 minutes after administration; cited from earlier work
[2] = cited from earlier work
B7-H1 (PD-L1) = assay: Inhibition of interferon-γ-dependent expression of B7-H1 (PD-L1) on cancer cells; type: cell-based
B7-H1 = settings: known effect, background; cited from earlier work

For `CC[C@@]1(O)C(=O)OCc2c1cc1n(c2=O)Cc2cc3ccccc3nc2-1` [camptothecin, (S)-4-ethyl-4-hydroxy-1H-pyrano-[3′,4′:6,7]indolizino[1,2-b]quinoline-3, 14(4H,12H)-dione], the “lactone form hydrolyzed to an open ring” value [1] is given as 50% and the solubility in water [2] is given as “essentially insoluble”.

With `CC(C)[C@]12O[C@H]1[C@@H]1O[C@]13[C@]1(O[C@H]1C[C@H]1C4=C(CC[C@@]13C)C(=O)OC4)[C@@H]2O` [triptolide, Triptolide] the “inhibitory effect on interferon-γ-dependent expression of B7-H1 (PD-L1)” value (“inhibitory effect … (PD-L1)” below) (B7-H1 (PD-L1); MDA-MB-231 triple negative breast cancer cell, FIG. 9) was “inhibitory effect”, the “inhibitory effect … (PD-L1)” value (B7-H1 (PD-L1); MDA-MB-468 triple negative breast cancer cell, FIG. 10) was “inhibitory effect” and the “inhibitory effect … (PD-L1)” value (B7-H1 (PD-L1); U-87 MG glioma cells, FIG. 8) was “Inhibitory effect”. The “inhibitory effect … (PD-L1)” value (B7-H1 (PD-L1); U-87 stem-like cells, FIG. 5) was “inhibitory effect”, the “inhibitory effect … (PD-L1)” value (B7-H1 (PD-L1); U-251 glioma cell, FIG. 7) was “inhibitory effect” and the “inhibitory effect … (PD-L1)” value (B7-H1 (PD-L1); cancer stem cell (CSC-5), FIG. 6) was “inhibitory effect”. The “expression of B7-H1 by cancer cells” value (B7-H1) was “inhibit”.
